According to patent publication US5124347A, “3-5-ditertiarybutylphenyl-4-hydroxymethylidene derivatives of 1,3-dihydro-2H-indole-2-ones as antiinflammatory agents” (Warner-Lambert Co., priority 1991, dated 1992):
Like-named read-outs stand apart in the source and are kept apart here.

Legend:
5-lipoxygenase = biological target: T1, 5-lipoxygenase (Rattus norvegicus, UniProt P12527); experiment: ARBL whole cell 5-lipoxygenase assay (RBL-1 cells, inhibition of LTB4 formation); type: cell-based; conditions: calcium ionophore A23187 (5 μM)
T1 construct: host or cells: RBL-1 (rat basophilic leukemia)
T1 sequence (P12527 1-673): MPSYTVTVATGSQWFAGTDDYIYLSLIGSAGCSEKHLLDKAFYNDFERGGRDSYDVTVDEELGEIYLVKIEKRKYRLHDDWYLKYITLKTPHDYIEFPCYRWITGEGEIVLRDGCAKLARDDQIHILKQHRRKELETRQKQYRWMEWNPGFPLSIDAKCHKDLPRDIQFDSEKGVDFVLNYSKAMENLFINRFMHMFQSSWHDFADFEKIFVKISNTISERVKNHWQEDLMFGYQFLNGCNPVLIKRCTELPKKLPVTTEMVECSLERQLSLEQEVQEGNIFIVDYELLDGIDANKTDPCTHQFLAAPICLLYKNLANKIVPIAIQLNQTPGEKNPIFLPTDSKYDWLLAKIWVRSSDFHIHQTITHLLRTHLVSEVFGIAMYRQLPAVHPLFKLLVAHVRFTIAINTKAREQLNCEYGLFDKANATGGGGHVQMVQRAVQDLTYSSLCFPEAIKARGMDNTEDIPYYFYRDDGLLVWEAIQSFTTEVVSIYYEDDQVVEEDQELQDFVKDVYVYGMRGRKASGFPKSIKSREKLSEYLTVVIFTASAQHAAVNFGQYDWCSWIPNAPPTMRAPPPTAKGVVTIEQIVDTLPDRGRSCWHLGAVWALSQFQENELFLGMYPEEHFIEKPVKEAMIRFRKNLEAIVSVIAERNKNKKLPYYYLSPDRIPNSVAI
Procedure: (§1) ARBL/ARBC WHOLE CELL 5-LIPOXYGENASE AND CYCLOOXYGENASE ASSAYS
(§2) The rat basophilic leukemia cell line (RBL-1) was obtained from the American Type Culture Collection (Rockville, Md.).
(§3) Radioimmunoassay (RIA) kits of LTB4 and PGF2α were obtained from Amersham (Arlington Heights, Ill.) and Seragen (Boston, Mass.), respectively.
(§4) All tissue culture media were obtinaed from GIBCO (Grand Island, N.Y.).
(§5) RBL-1 cells are grown in suspension culture in Eagle's minimum essential medium supplemented with 12% fetal bovine serum at 37° C. in an incubator supplied with air-5% carbon dioxide. Cells are harvested by centrifugation. They are washed with cold phosphate-buffered saline, pH 7.4 (PBS; NaCl, 7.1 g; Na2 HPO4, 1.15 g; KH2 PO4, 0.2 g; and KCl, 0.2 g/L). Cells are finally suspended in PBS containing 1.0 mM calcium at a density of 2×10^6 cells/mL. Cells are incubated […] test agent (in DMSO) (1% DMSO is without effect on arachidonic acid metabolism) for 10 minutes at room temperature. Calcium ionophore A23187 (5 μM) is added and cells are incubated for 7 minutes at 37° C. The reaction is stopped by chilling the tubes on ice for 10 minutes. Cells are separated by centrifugation and the supernatant is stored at -20° C. Aliquots (100 μL) are anlyzed for LTB4 and PGF2α using radioimmunoassay kits as provided by the supplier.
(§6) Table 1 contains biochemical data for compounds of formula I obtained from this whole cell assay as amount of inhibition at 10 μM or IC50 s which are calculated as the concentration of a test compound in micromoles (μM) causing 50% inhibition of LTB4 or PGF2α formation.

cyclooxygenase = biological target: T2, cyclooxygenase (Rattus norvegicus, UniProt Q63921); experiment: ARBC whole cell cyclooxygenase assay (RBL-1 cells, inhibition of PGF2α formation); type: cell-based; conditions: calcium ionophore A23187 (5 μM)
T2 construct: host or cells: RBL-1 (rat basophilic leukemia)
T2 sequence (Q63921 27-602): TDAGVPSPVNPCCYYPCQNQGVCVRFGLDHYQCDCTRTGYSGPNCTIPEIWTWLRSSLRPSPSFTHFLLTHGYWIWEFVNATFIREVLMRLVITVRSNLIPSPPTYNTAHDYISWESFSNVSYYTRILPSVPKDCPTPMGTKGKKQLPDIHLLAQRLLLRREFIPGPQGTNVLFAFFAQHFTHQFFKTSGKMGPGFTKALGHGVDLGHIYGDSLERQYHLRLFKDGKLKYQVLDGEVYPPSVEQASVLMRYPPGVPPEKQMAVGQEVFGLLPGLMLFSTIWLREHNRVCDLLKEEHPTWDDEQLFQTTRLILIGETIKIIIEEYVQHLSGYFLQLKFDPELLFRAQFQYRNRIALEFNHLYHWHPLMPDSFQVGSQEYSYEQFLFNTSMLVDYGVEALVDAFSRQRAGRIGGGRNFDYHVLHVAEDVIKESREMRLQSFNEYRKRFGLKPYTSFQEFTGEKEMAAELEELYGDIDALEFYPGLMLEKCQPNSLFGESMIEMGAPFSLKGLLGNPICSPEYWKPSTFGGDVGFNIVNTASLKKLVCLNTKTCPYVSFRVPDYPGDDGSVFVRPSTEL
Procedure: as §1, §2, §3, §4, §5, §6

[1] = test system: Mycobacterium-Induced Rat Footpad Edema; experiment: Mycobacterium-Induced Rat Footpad Edema Assay (MFE); type: in vivo; conditions: at 10 m/k, dosed one hour before Mycobacterium and Days 1 and 2, 72 hours
Procedure: Mycobacterium - Induced Rat Footpad Edema Assay (MFE): Protocol Mycobacterium butyricum (5 mg/ml) is suspended in paraffin oil by sonication for ten minutes in an ice bath. Footpad edema is induced on Day 0 by injecting 0.1 ml of the Mycobacterium mixture into the left hindpaw of lightly anesthetized rats. Swelling in the injected hindpaw is determined by mercury plethysmography 72 hours after injection. Groups of rats are treated with test compounds (suspended in 0.5% hydroxypropyl methylcellulose with 0.2% Tween-80) or vehicle one hour before Mycobacterium injection and on Days 1 and 2. Inhibition of swelling is determined by comparing the change in hindpaw volume in compound- and vehicle-treated rats. An ID40 (the dose at which swelling is inhibited by 40%) is calculated by probit analysis. Table 1 also contains biochemical data for compounds of formula I obtained from the CFE and MFE assays.

[2] = test system: Carrageenan-Induced Rat Foot Paw Edema; experiment: Carrageenan-Induced Rat Foot Paw Edema-2 (CFE-2) Assay; type: in vivo; conditions: at 10 m/k, dosed one hour before carrageenan, edema at five hours
Procedure: Carrageenan-Induced Rat Foot Paw Edema-2 (CFE-2) Assay: Protocol
Carrageenan solution (1% w/v) is prepared by dissolving 100 mg carrageenan (Marine Colloidal Div., Springfield N.J.) in 10 ml of sterile saline (0.9%) solution (travenol). The solution is vortexed for 30 to 45 minutes. Animals are dosed with compound one hour before carrageenan challenge. Foot paw edema is induced by injecting 0.10 ml of the 1% carrageenan subcutaneously into the plantar portion of the right hind paw of each rat under light anesthesia. Initial foot paw volume is measured immediately following carrageenan challenge using mercury plethysmography (Buxco Electronics). Edema is measured five hours after carrageenan. The difference between the five-hour and the initial paw volume is expressed as delta edema. The delta edema for each test group of animals is used to calculate the percent inhibition of edema achieved by the compound at the test dose compared with the vehicle control group. The ID40 (the dose at which swelling is inhibited by 40%) is calculated by probit analysis for the dose at which 40 percent inhibition occurs.
Table 1 also contains biochemical data for compounds of formula I obtained from the CFE and MFE assays.

[3] = read-out: ARBC, inhibition of PGF2α (class symbol N)
[4] = read-out: ARBC, inhibition of PGF2α

| Compound | inhibition at 10 µM (5-lipoxygenase) | inhibition at 10 µM (cyclooxygenase; [3]) | other results |
| --- | --- | --- | --- |
| CC(C)(C)c1cc(/C=C2\C(=O)Nc3ccccc32)cc(C(C)(C)C)c1O [Example 1, 3-[[3,5-bis(1,1-dimethylethyl)-4-hydroxyphenyl]methylene]1,3,-dihydro-2H-indole-2-one, (Z)-] |  |  | IC50 (5-lipoxygenase): 0.93 µM; IC50 (cyclooxygenase): 1.5 µM; MFE, inhibition of swelling [1]: 42% |
| Cc1ccc2c(c1)/C(=C/c1cc(C(C)(C)C)c(O)c(C(C)(C)C)c1)C(=O)N2 [Example 2, 3-[[3,5-Bis(1,1-dimethylethyl)-4-hydroxyphenyl]-methylene]-1,3-dihydro-5-methyl-2H-indole-2-one, (Z)] | 100% | < 40% |  |
| CC(C)(C)c1cc(/C=C2\C(=O)N(C(N)=O)c3ccccc32)cc(C(C)(C)C)c1O [Example 3] | 100% |  | inhibition at 10 µM (cyclooxygenase; [4]): 32% |
| CN1C(=O)/C(=C\c2cc(C(C)(C)C)c(O)c(C(C)(C)C)c2)c2ccccc21 [Example 4] | 100% |  | inhibition at 10 µM (cyclooxygenase; [4]): 30% |
| COc1cccc2c1NC(=O)/C2=C\c1cc(C(C)(C)C)c(O)c(C(C)(C)C)c1 [Example 5, 3-[[3,5-bis(1,1-dimethylethyl)-4-hydroxyphenyl]-methylene]-1,3-dihydro-7-methoxy-2H-indol-2-one, (Z)-] |  |  | IC50 (5-lipoxygenase): 0.43 µM; IC50 (cyclooxygenase): 6.07 µM; CFE, inhibition of edema [2]: 43%; MFE, inhibition of swelling [1]: 33% |
| CCOC(=O)c1ccc2c(c1)/C(=C/c1cc(C(C)(C)C)c(O)c(C(C)(C)C)c1)C(=O)N2 [Example 6, 3-[[3,5-bis(1,1-dimethylethyl)-4-hydroxyphenyl]-methylene]-2,3-dihydro-2-oxo-1H-indole-5-carboxylic acid, ethyl ester (Z)-] | 100% | < 40% |  |
| Cc1cccc2c1NC(=O)/C2=C\c1cc(C(C)(C)C)c(O)c(C(C)(C)C)c1 [Example 7] | 100% | < 40% |  |
| COc1ccc2c(c1)/C(=C/c1cc(C(C)(C)C)c(O)c(C(C)(C)C)c1)C(=O)N2C [Example 8, 3-[[3,5-bis(1,1-dimethylethyl)-4-hydroxyphenyl]methylene]-1,3-dihydro-5-methoxy-1-methyl-2H-indole-2-one, (Z)-] | 100% | < 40% |  |
| CC(C)(C)c1cc(/C=C2\C(=O)Nc3cccc(Cl)c32)cc(C(C)(C)C)c1O [Example 9, 3-[[3,5-bis(1,1-dimethylethyl)-4-hydroxyphenyl]methylene]-4-chloro-1,3-dihydro-2H-indole-2-one, (Z)-] | 48% | < 40% |  |
| Cc1cccc2c1/C(=C/c1cc(C(C)(C)C)c(O)c(C(C)(C)C)c1)C(=O)N2 [Example 10, 3-[[3,5-bis(1,1-dimethylethyl)-4-hydroxyphenyl]methylene]-1,3-dihydro-4-methyl-2H-indole-2-one, (Z)-] | 100% | < 40% |  |
| CC(C)(C)c1cc(/C=C2\C(=O)Nc3ccc(C(=O)O)cc32)cc(C(C)(C)C)c1O [Example 12, 3-[[3,5-bis(1,1-dimethylethyl)-4-hydroxyphehyl]methylene]-2,3-dihydro-2-oxo-1H-indole-5-carboxylic acid, (Z)-] | 100% | < 40% |  |
